Reference: patent publication US8148391B2 (Cephalon, Inc., priority 2006, dated 2012)
Where two headings read alike, the source gives them in different places.

What was measured:
[1] = target: T1, baculovirus-expressed ALK (Homo sapiens, UniProt Q9UM73); assay: ALK Kinase Assay (ELISA-type, time-resolved fluorescence); format: biochemical
T1 construct: host or cells: baculovirus expression system
How it was run: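 Plates coated with phospholipase C-γ substrate (10 μg/mL in TBS); reaction started with 30 ng/ml ALK and run 15 min at 37° C. Phosphorylated substrate detected with Eu-N1-labeled PT66 antibody. IC50 from sigmoidal variable-slope fit of percent inhibition vs log concentration.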

[2] = target: T2, c-Met (cytoplasmic domain) (Homo sapiens, UniProt P08581); assay: c-Met Kinase Assay (same methods as for ALK, with modifications); format: biochemical
T2 construct: 10 ng/mL c-Met (cytoplasmic domain, Invitrogen Corporation #PV3143); purchased Invitrogen Corporation PV3143
T2 sequence (P08581 956-1390 limits assumed): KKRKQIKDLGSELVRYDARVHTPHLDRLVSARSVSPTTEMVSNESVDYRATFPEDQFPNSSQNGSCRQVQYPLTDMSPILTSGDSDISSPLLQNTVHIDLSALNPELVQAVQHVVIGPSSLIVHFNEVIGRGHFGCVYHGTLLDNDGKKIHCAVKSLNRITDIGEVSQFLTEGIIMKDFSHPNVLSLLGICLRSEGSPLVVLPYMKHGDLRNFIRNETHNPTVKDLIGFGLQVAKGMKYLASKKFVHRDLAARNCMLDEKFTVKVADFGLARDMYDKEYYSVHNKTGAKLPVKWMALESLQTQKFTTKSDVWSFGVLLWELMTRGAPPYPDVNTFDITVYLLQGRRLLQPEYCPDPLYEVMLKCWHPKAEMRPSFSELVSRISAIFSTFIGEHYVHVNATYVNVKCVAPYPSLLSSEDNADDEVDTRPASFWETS
How it was run: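 Europium-labeled PT66 antibody (Eu-N1) detects substrate phosphorylation on wells coated with phospholipase C-γ at 10 μg/mL. The kinase, the cytoplasmic domain of c-Met at 10 ng/mL, starts the reaction, which proceeds 15 minutes at 37° C.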

[3] = ALK kinase inhibition, 1 μM ATP, read-out: ALK Activity
[4] = c-Met kinase inhibition, 1 μM ATP, read-out: cMet Activity
[5] = 1 μM ATP (Km level), 30 ng/ml ALK, 37° C., 15 minutes, read-out: ALK Activity (ALK kinase inhibition, IC50 class)
[6] = 1 μM ATP (Km level), 10 ng/mL c-Met, read-out: cMet Activity (c-Met kinase inhibition, IC50 class)
[7] = ALK kinase inhibition, 1 μM ATP (Km level), read-out: ALK Activity
[8] = c-Met kinase inhibition, 1 μM ATP (Km level), read-out: cMet Activity
[9] = 1 μM ATP (Km level), read-out: ALK Activity (ALK Kinase Inhibition, IC50)
[10] = 1 μM ATP (Km level), read-out: cMet Activity (c-Met Kinase Inhibition, IC50)

T1 sequence (Q9UM73 19-1620): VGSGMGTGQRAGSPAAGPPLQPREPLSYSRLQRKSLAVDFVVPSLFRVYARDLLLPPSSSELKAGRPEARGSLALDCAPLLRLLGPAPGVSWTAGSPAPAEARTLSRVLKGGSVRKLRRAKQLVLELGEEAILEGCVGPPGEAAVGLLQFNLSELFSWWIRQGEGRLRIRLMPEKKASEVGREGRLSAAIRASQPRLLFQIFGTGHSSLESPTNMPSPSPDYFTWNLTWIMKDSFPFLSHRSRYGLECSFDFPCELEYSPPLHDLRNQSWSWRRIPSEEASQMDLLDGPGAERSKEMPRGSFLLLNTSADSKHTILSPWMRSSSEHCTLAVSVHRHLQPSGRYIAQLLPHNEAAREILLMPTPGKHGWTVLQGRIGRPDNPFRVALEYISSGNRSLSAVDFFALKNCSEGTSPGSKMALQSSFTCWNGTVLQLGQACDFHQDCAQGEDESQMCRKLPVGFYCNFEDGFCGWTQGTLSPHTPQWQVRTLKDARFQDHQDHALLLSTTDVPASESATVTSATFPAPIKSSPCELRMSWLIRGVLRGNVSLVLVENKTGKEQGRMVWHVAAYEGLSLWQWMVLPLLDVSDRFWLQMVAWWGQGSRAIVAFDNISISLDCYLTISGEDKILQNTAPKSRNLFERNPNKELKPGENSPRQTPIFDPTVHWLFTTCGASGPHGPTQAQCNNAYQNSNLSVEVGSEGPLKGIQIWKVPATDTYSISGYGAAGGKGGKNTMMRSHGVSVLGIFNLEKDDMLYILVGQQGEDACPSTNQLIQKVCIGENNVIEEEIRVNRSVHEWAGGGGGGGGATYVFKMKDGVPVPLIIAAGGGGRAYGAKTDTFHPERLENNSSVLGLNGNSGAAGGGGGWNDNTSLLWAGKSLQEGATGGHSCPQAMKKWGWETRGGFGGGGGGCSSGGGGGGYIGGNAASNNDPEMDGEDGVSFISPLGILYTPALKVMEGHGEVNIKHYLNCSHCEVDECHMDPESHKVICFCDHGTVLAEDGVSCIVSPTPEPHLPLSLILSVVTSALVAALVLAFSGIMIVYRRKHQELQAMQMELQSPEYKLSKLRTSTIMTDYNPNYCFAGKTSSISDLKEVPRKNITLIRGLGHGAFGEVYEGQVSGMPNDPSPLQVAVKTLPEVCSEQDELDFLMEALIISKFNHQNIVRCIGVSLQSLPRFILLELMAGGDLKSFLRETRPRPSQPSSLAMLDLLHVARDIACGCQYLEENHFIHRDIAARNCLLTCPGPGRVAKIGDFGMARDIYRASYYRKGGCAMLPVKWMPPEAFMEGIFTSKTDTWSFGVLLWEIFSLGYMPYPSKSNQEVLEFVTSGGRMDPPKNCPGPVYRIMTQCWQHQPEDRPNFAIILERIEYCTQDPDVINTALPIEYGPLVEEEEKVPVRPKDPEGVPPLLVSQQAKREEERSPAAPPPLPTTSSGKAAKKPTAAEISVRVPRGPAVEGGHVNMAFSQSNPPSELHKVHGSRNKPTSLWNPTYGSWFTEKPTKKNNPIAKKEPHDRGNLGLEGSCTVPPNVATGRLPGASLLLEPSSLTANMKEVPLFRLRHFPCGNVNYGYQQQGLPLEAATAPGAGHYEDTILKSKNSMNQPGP

With `CCN1CCCOc2cc(Nc3ncc(Cl)c(Nc4ccc(N5CCOCC5)cc4OC)n3)c(F)cc21` [Example 1688, 5-Chloro-N*2*-(9-ethyl-2-fluoro-6,7,8,9-tetrahydro-5-oxa-9-aza-benzocyclohepten-3-yl)-N*4*-(2-methoxy-4-morpholin-4-yl-phenyl)-pyrimidine-2,4-diamine] the IC50 [1, 3] was 100 to 1000 nM and the IC50 [2, 4] was greater than 10000 nM.

`CN1Cc2cc(Nc3ncc(Cl)c(Nc4ccccc4-c4cc[nH]n4)n3)ccc2CCC1=O` [Example 1804, 8-{5-Chloro-4-[2-(1H-pyrazol-3-yl)-phenylamino]-pyrimidin-2-ylamino}-2-methyl-1,2,4,5-tetrahydro-benzo[c]azepin-3-one] was tested, and the IC50 [1, 3] was less than 100 nM and the IC50 [2, 4] was 100 to 1000 nM.

In the case of “3-{5-Chloro-2-[3-(2-methoxy-ethyl)-2,3,4,5-tetrahydro-1H-benzo[d]azepin-7-ylamino]-pyrimidin-4-ylamino}-4-methyl-thiophene-2-carboxylic acid methylamide [Example 1363]”, the IC50 [1, 5] is reported as less than 100 nM and the IC50 [2, 6] is reported as less than 100 nM.

For `COc1cc2c(cc1Nc1ncc(Cl)c(Nc3ccc(N4CCOCC4)cc3OC)n1)CCN(CCN1CCOCC1)CC2` [Example 1523, 5-Chloro-N(2)-[8-methoxy-3-(2-morpholin-4-yl-ethyl)-2,3,4,5-tetrahydro-1H-3-benzazepin-7-yl]-N(4)-(2-methoxy-4-morpholin-4-yl-phenyl)-pyrimidine-2,4-diamine], the IC50 [1, 3] was less than 100 nM and the IC50 [2, 4] was greater than 10000 nM.

Compound `CNC(=O)c1ccccc1Nc1nc(Nc2ccc3c(c2)C2CCC3CN(C(=O)C(F)(F)F)C2)ncc1Cl` (stereo not shown) [Example 276, 2-{5-Chloro-2-[10-(2,2,2-trifluoro-acetyl)-10-aza-tricyclo[6.3.2.0*2,7*]trideca-2,4,6-trien-4-ylamino]-pyrimidin-4-ylamino}-N-methyl-benzamide] has an IC50 [1, 7] of 100 to 1000 nM and an IC50 [2, 8] of less than 100 nM.

Work on `COCCN1CCc2ccc(Nc3ncc(Cl)c(Nc4ccccc4-c4nc(C(F)(F)F)c[nH]4)n3)cc2CC1` [Example 1011, 5-Chloro-N*2*-[3-(2-methoxy-ethyl)-2,3,4,5-tetrahydro-1H-benzo[d]azepin-7-yl]-N*4*-[2-(4-trifluoromethyl-1H-imidazol-2-yl)-phenyl]-pyrimidine-2,4-diamine] yielded an IC50 [1, 9] of less than 100 nM and an IC50 [2, 10] of 100 to 1000 nM.

For `CCOC(=O)N1C2CCC1c1cc(C(=O)OC)cc(Nc3ncc(Cl)c(Nc4ccccc4C(=O)NC)n3)c1C2` (stereo not shown) [Example 78, 6-[5-Chloro-4-(2-methylcarbamoyl-phenylamino)-pyrimidin-2-ylamino]-12-aza-tricyclo[7.2.1.0*2,7*]dodeca-2(7),3,5-triene-4,12-dicarboxylic acid 12-ethyl ester 4-methyl ester], the IC50 [1, 7] was less than 100 nM and the IC50 [2, 8] was 100 to 1000 nM.

`COc1cc2c(cc1Nc1ncc(Cl)c(Nc3ccccc3S(=O)(=O)N3CC[C@H](N(C)C)C3)n1)CCN(CC(=O)N(C)C)CC2` [Example 846, 2-(7-{5-Chloro-4-[2-((S)-3-dimethylamino-pyrrolidine-1-sulfonyl)-phenylamino]-pyrimidin-2-ylamino}-8-methoxy-1,2,4,5-tetrahydro-benzo[d]azepin-3-yl)-N,N-dimethyl-acetamide] showed an IC50 [1, 9] of less than 100 nM and an IC50 [2, 10] greater than 10000 nM.

`COc1cc2c(cc1Nc1ncc(Cl)c(Nc3ccc(N4CCOCC4)cc3OC)n1)C(C)(C)CCC(=O)N2` [Example 1672, 7-[5-Chloro-4-(2-methoxy-4-morpholin-4-yl-phenylamino)-pyrimidin-2-ylamino]-8-methoxy-5,5-dimethyl-1,3,4,5-tetrahydro-benzo[b]azepin-2-one] gave an IC50 [1, 3] of 100 to 1000 nM and an IC50 [2, 4] greater than 10000 nM.

In the case of `CNC(=O)c1ccccc1Nc1nc(Nc2cc3c(cc2Cl)CC2CCC3N2CCOC)ncc1Cl` (stereo not shown) [Example 88, 2-{5-Chloro-2-[5-chloro-12-(2-methoxy-ethyl)-12-aza-tricyclo[7.2.1.0*2,7*]dodeca-2(7),3,5-trien-4-ylamino]-pyrimidin-4-ylamino}-N-methyl-benzamide], the IC50 [1, 7] is reported as less than 100 nM and the IC50 [2, 8] is reported as 1000 to 10000 nM.

Work on `COc1cc2c(cc1Nc1ncc(Cl)c(Nc3ccccc3S(=O)(=O)N(C)C)n1)CCN(CC(C)O)CC2` (stereo not shown) [Example 1547, 2-{5-Chloro-2-[3-(2-hydroxy-propyl)-8-methoxy-2,3,4,5-tetrahydro-1H-3-benzazepin-7-ylamino]-pyrimidin-4-ylamino}-N,N-dimethyl-benzenesulfonamide] yielded an IC50 [1, 3] of less than 100 nM and an IC50 [2, 4] of 1000 to 10000 nM.

`CNC(=O)c1ccccc1Nc1nc(Nc2ccc3c(c2)CCCC(=O)N3C)ncc1Br` [Example 197, 2-[5-Bromo-2-(1-methyl-2-oxo-2,3,4,5-tetrahydro-1H-benzo[b]azepin-7-ylamino)-pyrimidin-4-ylamino]-N-methyl-benzamide] showed an IC50 [1, 7] of less than 100 nM and an IC50 [2, 8] of less than 100 nM.

For `COc1cc2c(cc1Nc1ncc(Cl)c(Nc3ccccc3S(=O)(=O)N3CC[C@H](O)C3)n1)CCN(C[C@@H](C)O)CC2` [Example 1556, (S)-1-(2-{5-Chloro-2-[3-((R)-2-hydroxy-propyl)-8-methoxy-2,3,4,5-tetrahydro-1H-3-benzazepin-7-ylamino]-pyrimidin-4-ylamino}-benzenesulfonyl)-pyrrolidin-3-ol], the IC50 [1, 3] was less than 100 nM and the IC50 [2, 4] was 1000 to 10000 nM.

For `CNC(=O)c1cc(-c2cnn(C)c2)cc(F)c1Nc1nc(Nc2ccc3c(c2)NC(=O)CCC3)ncc1Cl` [Example 1422, 2-[5-Chloro-2-(2-oxo-2,3,4,5-tetrahydro-1H-benzo[b]azepin-8-ylamino)-pyrimidin-4-ylamino]-3-fluoro-N-methyl-5-(1-methyl-1H-pyrazol-4-yl)-benzamide], the IC50 [1, 5] was 100 to 1000 nM and the IC50 [2, 6] was less than 100 nM.

In the case of `CNC(=O)c1ccccc1Nc1nc(Nc2cc3c(cc2OC)CCC(NCCOC)CC3)ncc1Cl` (stereo not shown) [Example 1086, 2-{5-Chloro-2-[3-methoxy-7-(2-methoxy-ethylamino)-6,7,8,9-tetrahydro-5H-benzocyclohepten-2-ylamino]-pyrimidin-4-ylamino}-N-methyl-benzamide], the IC50 [1, 5] is reported as less than 100 nM and the IC50 [2, 6] is reported as 100 to 1000 nM.

`COc1cc2c(cc1Nc1ncc(Cl)c(Nc3ccc(N4CCOCC4)cc3OC)n1)N(C)CCN(S(C)(=O)=O)C2` [Example 494, 5-Chloro-N*2*-(4-methanesulfonyl-7-methoxy-1-methyl-2,3,4,5-tetrahydro-1H-benzo[e][1,4]diazepin-8-yl)-N*4*-(2-methoxy-4-morpholin-4-yl-phenyl)-pyrimidine-2,4-diamine] was tested, and the IC50 [1, 7] was less than 100 nM and the IC50 [2, 8] was greater than 10000 nM.

`COCCN1C(=O)CCC(C)(C)c2ccc(Nc3ncc(Cl)c(Nc4ccc(N5CCOCC5)cc4OC)n3)cc21` [Example 1584, 8-[5-Chloro-4-(2-methoxy-4-morpholin-4-yl-phenylamino)-pyrimidin-2-ylamino]-1-(2-methoxy-ethyl)-5,5-dimethyl-1,3,4,5-tetrahydro-benzo[b]azepin-2-one] showed an IC50 [1, 3] of less than 100 nM and an IC50 [2, 4] of 1000 to 10000 nM.

`CNC(=O)CN1CCc2cc(Nc3ncc(Cl)c(Nc4cc(C(N)=O)ccc4OC)n3)c(OC)cc2CC1` [Example 1138, 3-[5-Chloro-2-(8-methoxy-3-methylcarbamoylmethyl-2,3,4,5-tetrahydro-1H-benzo[d]azepin-7-ylamino)-pyrimidin-4-ylamino]-4-methoxy-benzamide] showed an IC50 [1, 5] of 100 to 1000 nM and an IC50 [2, 6] greater than 10000 nM.

`CC(C)N1CCNC(=O)c2ccc(Nc3ncc(Cl)c(N[C@@H]4CCCC[C@H]4NS(C)(=O)=O)n3)cc21` [Example 499, N-{(1R,2R)-2-[5-Chloro-2-(1-isopropyl-5-oxo-2,3,4,5-tetrahydro-1H-benzo[e][1,4]diazepin-8-ylamino)-pyrimidin-4-ylamino]-cyclohexyl}-methanesulfonamide] showed an IC50 [1, 9] of 100 to 1000 nM and an IC50 [2, 10] of 100 to 1000 nM.

`COc1cc2c(cc1Nc1ncc(Cl)c(N[C@H]3[C@@H](C(N)=O)[C@@H]4C=C[C@H]3C4)n1)CCN(CC(F)F)CC2` (relative stereo) [Example 763, (2-exo,3-exo)-3-{5-Chloro-2-[3-(2,2-difluoro-ethyl)-8-methoxy-2,3,4,5-tetrahydro-1H-benzo[d]azepin-7-ylamino]-pyrimidin-4-ylamino}-bicyclo[2.2.1]hept-5-ene-2-carboxylic acid amide] showed an IC50 [1, 9] of less than 100 nM and an IC50 [2, 10] greater than 10000 nM.

`CCNC(=O)c1cccc(F)c1Nc1nc(Nc2ccc3c(c2)N(CC)C(=O)CCC3(C)C)ncc1Cl` [Example 1579, 2-[5-Chloro-2-(1-ethyl-5,5-dimethyl-2-oxo-2,3,4,5-tetrahydro-1H-benzo[b]azepin-8-ylamino)-pyrimidin-4-ylamino]-N-ethyl-3-fluoro-benzamide] was tested, and the IC50 [1, 3] was less than 100 nM and the IC50 [2, 4] was less than 100 nM.

`CNC(=O)c1ccccc1Nc1nc(Nc2ccc3c(c2)CNCCS3)ncc1Cl` [Example 516, 2-[5-Chloro-2-(6,7,8,9-tetrahydro-5-thia-aza-benzocyclohepten-2-ylamino)-pyrimidin-4-ylamino]-N-methyl-benzamide] showed an IC50 [1, 9] of less than 100 nM and an IC50 [2, 10] of less than 100 nM.

For `CC(C)[C@@H](Nc1nc(Nc2ccc3c(c2)CCOC(=O)N3C)ncc1Cl)C(N)=O` [Example 1763, (R)-2-[5-Chloro-2-(5-methyl-6-oxo-5,6,8,9-tetrahydro-7-oxa-5-aza-benzocyclohepten-2-ylamino)-pyrimidin-4-ylamino]-3-methyl-butyramide], the IC50 [1, 3] was 1000 to 10000 nM and the IC50 [2, 4] was 1000 to 10000 nM.
